Results on one compound are retold here after ChEMBL document CHEMBL4630905 (2021).

Assay [1] addresses Bromodomain-containing protein 2 (Homo sapiens, UniProt P25440). Kind of assay: BET mutant TR-FRET assay (BRD2 BD1).
Assay [2] concerns the target T1, Bromodomain-containing protein 3 (Homo sapiens, UniProt Q15059). Briefly: BET mutant TR-FRETassay (BRD3 BD1).
In assay [3] the target is T1, Bromodomain-containing protein 3. Kind of assay: BET mutant TR-FRET assay (BRD3 BD2). On the technique in general: In TR-FRET formats the signal depends on donor and acceptor labels being close together.
For assay [4], the target named is Bromodomain testis-specific protein (Homo sapiens, UniProt Q58F21). Briefly: BET mutant TR-FRET assay (BRDT BD2).
Another assay concerns the target Tumor necrosis factor (Homo sapiens, UniProt P01375). Briefly: In vitro inhibition of TNFalpha in Lipopolysaccharide-stimulated human whole blood. The assay is classed as tissue-based.
For assay [5], the target named is Bromodomain-containing protein 8 (Homo sapiens, UniProt Q9H0E9). Briefly: BRD8 (BD2) DiscoverX BROMOscan.
Assay [6] addresses Bromodomain-containing protein 9 (Homo sapiens, UniProt Q9H8M2). Briefly: BRD9 DiscoverX BROMOscan.
Assay [7] concerns the target Bromodomain and PHD finger-containing protein 3 (Homo sapiens, UniProt Q9ULD4). Briefly: BRPF3 DiscoverX BROMOscan.
The target of assay [8] is Chromatin remodeling regulator CECR2 (Homo sapiens, UniProt Q9BXF3). Kind of assay: CECR2 DiscoverX BROMOscan.
In the next assay the target is Protein polybromo-1 (Homo sapiens, UniProt Q86U86). Kind of assay: PBRM1 (BD2) DiscoverX BROMOscan.
Assay [9] addresses SWI/SNF-related matrix-associated actin-dependent regulator of chromatin subfamily A member 4 (Homo sapiens, UniProt P51532). Briefly: SMARCA4 DiscoverX BROMOscan.
Assay [10] deals with E3 ubiquitin-protein ligase TRIM33 (Homo sapiens, UniProt Q9UPN9). Kind of assay: TRIM33 (TIF1gamma) (PHD & BD) DiscoverX BROMOscan.
In assay [11] the target is 5-hydroxytryptamine receptor 5A (Homo sapiens) (UniProt P47898). The note with it: Compound concentration 10.0 uM.
In assay [12] the target is D(3) dopamine receptor (Homo sapiens) (UniProt P35462). The note with it: Compound concentration 10.0 uM.
Assay [13] has as its target D(1B) dopamine receptor (Homo sapiens) (UniProt P21918). The note with it: Compound concentration 10.0 uM.
The target of assay [14] is Histamine H1 receptor (Homo sapiens) (UniProt P35367). Particulars: Compound concentration 10.0 uM.
Assay [15] concerns the target Alpha-1A adrenergic receptor (Homo sapiens) (UniProt P35348). The note with it: Compound concentration 10.0 uM.
Assay [16] addresses Alpha-2B adrenergic receptor (Homo sapiens) (UniProt P18089). The note with it: Compound concentration 10.0 uM.
Assay [17] concerns the target Alpha-2C adrenergic receptor (Homo sapiens) (UniProt P18825). The note with it: Compound concentration 10.0 uM.
Assay [18] deals with Beta-1 adrenergic receptor (Homo sapiens) (UniProt P08588). The note with it: Compound concentration 10.0 uM.
The target in assay [19] is Beta-2 adrenergic receptor (Homo sapiens) (UniProt P07550). The note with it: Compound concentration 10.0 uM.
The target of assay [20] is Muscarinic acetylcholine receptor M2 (Homo sapiens) (UniProt P08172). The note with it: Compound concentration 10.0 uM.
Assay [21] deals with Muscarinic acetylcholine receptor M5 (Homo sapiens) (UniProt P08912). The note with it: Compound concentration 10.0 uM.
In assay [22] the target is Sigma intracellular receptor 2 (Homo sapiens) (UniProt Q5BJF2). Particulars: Compound concentration 10.0 uM.

The source made the active and inactive calls. The rule behind the calls is not given here.

T1 sequence (Q15059 2-726 limits assumed, change not shown): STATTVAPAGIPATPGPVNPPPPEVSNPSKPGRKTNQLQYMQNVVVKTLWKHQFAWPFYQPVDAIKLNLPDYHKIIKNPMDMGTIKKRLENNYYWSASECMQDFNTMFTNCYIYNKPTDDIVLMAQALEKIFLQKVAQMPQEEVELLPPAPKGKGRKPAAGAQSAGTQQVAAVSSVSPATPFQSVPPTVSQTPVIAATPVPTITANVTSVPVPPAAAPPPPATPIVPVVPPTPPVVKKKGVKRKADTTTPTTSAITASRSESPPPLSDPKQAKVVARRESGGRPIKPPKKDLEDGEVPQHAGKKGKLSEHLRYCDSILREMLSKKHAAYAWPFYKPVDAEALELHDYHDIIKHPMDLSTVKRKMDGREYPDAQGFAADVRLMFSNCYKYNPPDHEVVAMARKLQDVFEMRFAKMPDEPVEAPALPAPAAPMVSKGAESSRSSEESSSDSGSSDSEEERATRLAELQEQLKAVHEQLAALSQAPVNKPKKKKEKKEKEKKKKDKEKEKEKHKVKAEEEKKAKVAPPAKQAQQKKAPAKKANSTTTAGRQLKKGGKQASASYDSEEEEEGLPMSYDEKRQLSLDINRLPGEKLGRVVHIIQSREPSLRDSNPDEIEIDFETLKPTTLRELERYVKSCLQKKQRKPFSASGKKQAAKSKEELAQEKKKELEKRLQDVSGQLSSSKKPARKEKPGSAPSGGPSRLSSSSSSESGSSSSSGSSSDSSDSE
Sequence of Alpha-2C adrenergic receptor (Homo sapiens) (P18825 whole entry): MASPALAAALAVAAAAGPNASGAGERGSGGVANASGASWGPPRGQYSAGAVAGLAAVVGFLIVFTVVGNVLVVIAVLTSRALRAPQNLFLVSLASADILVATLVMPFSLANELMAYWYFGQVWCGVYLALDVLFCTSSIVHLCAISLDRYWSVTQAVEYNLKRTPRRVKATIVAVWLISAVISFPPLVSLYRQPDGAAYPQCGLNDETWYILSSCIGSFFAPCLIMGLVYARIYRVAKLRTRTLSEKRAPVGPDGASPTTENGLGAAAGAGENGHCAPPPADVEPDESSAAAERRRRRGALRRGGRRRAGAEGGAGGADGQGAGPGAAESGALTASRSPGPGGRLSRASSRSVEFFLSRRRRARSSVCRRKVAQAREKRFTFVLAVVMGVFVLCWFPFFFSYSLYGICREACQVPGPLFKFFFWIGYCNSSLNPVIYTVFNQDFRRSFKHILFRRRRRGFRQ
Sequence of SWI/SNF-related matrix-associated actin-dependent regulator of chromatin subfamily A member 4 (P51532 whole entry): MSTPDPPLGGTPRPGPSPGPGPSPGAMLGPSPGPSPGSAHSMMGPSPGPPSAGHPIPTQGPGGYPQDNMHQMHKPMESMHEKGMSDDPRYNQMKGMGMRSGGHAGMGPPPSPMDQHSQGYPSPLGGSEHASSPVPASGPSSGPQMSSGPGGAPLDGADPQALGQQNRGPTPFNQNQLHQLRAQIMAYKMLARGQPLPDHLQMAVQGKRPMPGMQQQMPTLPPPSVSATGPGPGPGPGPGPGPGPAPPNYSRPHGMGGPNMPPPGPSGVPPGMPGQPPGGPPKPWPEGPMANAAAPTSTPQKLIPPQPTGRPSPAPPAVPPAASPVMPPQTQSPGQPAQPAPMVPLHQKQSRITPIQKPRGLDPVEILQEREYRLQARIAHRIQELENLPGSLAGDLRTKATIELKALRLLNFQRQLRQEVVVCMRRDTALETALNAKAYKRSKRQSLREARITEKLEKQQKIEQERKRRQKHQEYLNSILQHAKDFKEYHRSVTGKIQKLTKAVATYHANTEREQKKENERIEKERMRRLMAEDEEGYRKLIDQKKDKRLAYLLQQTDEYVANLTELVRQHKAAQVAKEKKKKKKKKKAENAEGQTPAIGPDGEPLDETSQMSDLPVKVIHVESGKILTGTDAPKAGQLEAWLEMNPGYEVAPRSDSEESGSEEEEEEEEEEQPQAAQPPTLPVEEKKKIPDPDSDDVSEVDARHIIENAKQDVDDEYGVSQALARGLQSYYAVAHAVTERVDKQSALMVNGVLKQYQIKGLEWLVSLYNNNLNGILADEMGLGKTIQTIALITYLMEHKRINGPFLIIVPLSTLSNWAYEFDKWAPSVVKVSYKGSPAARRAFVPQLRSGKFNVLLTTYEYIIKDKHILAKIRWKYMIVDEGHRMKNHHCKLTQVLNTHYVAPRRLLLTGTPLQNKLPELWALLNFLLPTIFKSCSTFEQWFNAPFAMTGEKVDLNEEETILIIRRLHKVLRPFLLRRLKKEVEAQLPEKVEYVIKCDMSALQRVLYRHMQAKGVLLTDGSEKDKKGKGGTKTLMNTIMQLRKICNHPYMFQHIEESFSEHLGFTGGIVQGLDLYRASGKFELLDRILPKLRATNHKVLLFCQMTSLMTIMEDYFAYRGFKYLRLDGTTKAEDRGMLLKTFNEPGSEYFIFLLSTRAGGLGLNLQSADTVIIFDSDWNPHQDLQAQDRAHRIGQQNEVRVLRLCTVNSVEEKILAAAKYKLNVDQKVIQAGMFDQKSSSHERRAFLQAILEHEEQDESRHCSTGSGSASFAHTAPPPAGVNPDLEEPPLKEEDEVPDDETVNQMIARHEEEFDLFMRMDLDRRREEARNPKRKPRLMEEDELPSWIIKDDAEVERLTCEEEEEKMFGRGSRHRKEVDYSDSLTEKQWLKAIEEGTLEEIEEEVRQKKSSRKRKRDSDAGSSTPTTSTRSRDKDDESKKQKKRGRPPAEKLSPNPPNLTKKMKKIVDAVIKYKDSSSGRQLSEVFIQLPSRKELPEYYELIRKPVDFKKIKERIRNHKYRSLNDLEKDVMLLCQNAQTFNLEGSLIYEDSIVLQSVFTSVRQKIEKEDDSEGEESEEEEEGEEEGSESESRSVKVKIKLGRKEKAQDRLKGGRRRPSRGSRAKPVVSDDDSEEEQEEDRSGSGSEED
Sequence of Histamine H1 receptor (Homo sapiens) (P35367 whole entry): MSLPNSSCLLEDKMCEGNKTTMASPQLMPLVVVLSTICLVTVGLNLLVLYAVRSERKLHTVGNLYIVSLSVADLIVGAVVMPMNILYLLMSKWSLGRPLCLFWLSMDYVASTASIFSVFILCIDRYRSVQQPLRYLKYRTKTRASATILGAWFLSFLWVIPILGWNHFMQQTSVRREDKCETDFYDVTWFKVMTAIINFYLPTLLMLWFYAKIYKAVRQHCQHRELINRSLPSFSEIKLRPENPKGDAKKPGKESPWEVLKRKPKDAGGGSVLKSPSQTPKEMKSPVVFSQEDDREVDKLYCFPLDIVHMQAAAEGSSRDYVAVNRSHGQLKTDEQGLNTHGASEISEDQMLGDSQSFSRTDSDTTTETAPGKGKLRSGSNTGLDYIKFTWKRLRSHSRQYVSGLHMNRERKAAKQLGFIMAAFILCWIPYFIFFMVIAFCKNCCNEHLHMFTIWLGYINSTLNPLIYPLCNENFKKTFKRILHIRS
Sequence of Bromodomain-containing protein 8 (Q9H0E9 whole entry): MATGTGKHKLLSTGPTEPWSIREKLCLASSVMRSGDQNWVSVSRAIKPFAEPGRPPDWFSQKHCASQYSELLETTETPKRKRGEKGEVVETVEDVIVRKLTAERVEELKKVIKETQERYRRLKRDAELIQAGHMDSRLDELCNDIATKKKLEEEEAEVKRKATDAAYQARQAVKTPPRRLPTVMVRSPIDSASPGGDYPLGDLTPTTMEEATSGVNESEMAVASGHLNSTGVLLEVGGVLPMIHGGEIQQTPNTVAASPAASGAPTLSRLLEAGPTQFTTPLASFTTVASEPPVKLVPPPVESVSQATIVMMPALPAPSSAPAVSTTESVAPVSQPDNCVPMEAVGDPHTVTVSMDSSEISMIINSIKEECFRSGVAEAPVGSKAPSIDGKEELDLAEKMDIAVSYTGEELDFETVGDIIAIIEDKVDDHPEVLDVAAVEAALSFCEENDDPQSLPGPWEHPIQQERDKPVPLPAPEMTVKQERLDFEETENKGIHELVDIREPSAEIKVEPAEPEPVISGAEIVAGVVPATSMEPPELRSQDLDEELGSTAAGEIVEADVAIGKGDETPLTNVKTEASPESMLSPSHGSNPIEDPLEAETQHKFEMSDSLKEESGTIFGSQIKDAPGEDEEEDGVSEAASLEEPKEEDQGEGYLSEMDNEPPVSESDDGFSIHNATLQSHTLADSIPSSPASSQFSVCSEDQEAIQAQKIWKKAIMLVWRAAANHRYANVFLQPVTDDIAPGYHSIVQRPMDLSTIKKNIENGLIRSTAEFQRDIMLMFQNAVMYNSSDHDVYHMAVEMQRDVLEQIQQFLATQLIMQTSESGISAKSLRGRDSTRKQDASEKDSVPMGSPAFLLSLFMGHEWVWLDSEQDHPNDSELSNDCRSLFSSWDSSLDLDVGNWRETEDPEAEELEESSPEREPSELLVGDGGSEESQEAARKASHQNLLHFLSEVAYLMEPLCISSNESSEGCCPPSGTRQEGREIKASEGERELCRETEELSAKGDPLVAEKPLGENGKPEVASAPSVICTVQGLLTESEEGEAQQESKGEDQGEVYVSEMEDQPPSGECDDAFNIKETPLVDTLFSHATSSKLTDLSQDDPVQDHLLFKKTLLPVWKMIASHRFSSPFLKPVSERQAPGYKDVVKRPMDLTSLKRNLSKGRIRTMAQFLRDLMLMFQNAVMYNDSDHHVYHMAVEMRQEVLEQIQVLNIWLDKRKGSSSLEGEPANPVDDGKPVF
Sequence of Sigma intracellular receptor 2 (Homo sapiens) (Q5BJF2 whole entry): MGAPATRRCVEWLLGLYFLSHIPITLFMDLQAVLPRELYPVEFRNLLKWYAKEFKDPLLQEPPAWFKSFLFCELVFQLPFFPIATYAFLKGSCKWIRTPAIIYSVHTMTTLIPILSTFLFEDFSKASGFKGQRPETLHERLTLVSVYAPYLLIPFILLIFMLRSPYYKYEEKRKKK
Sequence of Tumor necrosis factor (P01375 whole entry): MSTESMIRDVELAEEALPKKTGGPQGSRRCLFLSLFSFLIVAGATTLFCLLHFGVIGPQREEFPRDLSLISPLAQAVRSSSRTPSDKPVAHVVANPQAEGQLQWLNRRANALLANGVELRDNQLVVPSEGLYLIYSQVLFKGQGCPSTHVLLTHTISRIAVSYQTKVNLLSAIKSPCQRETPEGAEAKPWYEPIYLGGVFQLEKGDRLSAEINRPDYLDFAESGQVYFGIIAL

Turning to `Cc1cc2c(-c3ccco3)cnc(N[C@@H]3CCN(C)C[C@H]3C(=O)NC3CCCCC3)c2[nH]c1=O` [GSK789], the pIC50 (usually −log10 of the IC50, conventionally taken in molar units) in assay [1] is 7; in [2], 6.8; in assay [3] it was 4.7; in assay [4], 4.9. Besides, the IC50 (in general, the concentration that inhibits the measured activity by half) on Tumor necrosis factor is 0.87 µM (active). Moreover, the Kd (in assay [5]; in assay [6]; in assay [7]; in [8]; at Protein polybromo-1; in assay [9]) was 31.6 µM each time. Binding in assay [10] was characterised by a dissociation constant (Kd) of 31.6 µM. The inhibition – broadly, the change of the read-out against control, counted positive when it falls – in assay [11] was 24.1%; in assay [12] it was 9.01%; in [13] it was 33.2%; in [14] it was -0.72%; in [15] it was 25.2%; in assay [16], -0.37%. The inhibition in assay [17] was 8.58%; in assay [18], 1.68%; in [19] it was 19.8%; in assay [20], 0.27%; in assay [21] it was 16.3%; in [22], 9.26%.
